The record followed here is PubChem BioAssay (NCI).

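Compound exposure: 48 hours, 5 concentrations, 96-well plates. TGI: total growth inhibition.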

Holding throughout (assay): growth of human tumour cells (NCI), 48 h
Assay [1] has as its system DLD-1 colon.
Assay [2] has as its system M19-MEL melanoma.
Assay [3] has as its system UACC-62 melanoma.
The subject of assay [4] is A498 renal.
Assay [5] concerns NCI-H23 lung.
The subject of assay [6] is RXF-631 renal.
The test system of assay [7] is K-562 leukemia.
In assay [8] the test system is SK-OV-3 ovarian.
In assay [9] the test system is SNB-78 CNS.
Assay [10] relates to MALME-3M melanoma.
The test system of assay [11] is HCC-2998 colon.
The subject of assay [12] is PC-3 prostate.

On to `OC1OCC(COc2cc(Cl)c(Cl)cc2Cl)OC1O` (configuration not stated), for which the TGI in [1], in [2], in assay [3], in assay [4], in assay [5] and in assay [6] was above 100 µM in each case. Also, the TGI in [7] is above 100 µM; in assay [8], above 100 µM; in assay [9] it was 79.7 µM; in assay [10], above 100 µM; in assay [11], above 100 µM.
Take `O=C1c2ccccc2C(=O)N1CC#CCO`: the TGI in [2], in assay [3], in assay [4], in assay [5], in assay [6] and in assay [7] was above 100 µM throughout. Besides, the TGI in assay [8] and in assay [9] was above 100 µM each time.
For `O=C(CC12C3C4C1C1C2C3C41CC(=O)NO)NO` (configuration not stated), the TGI in [1] was above 100 µM; in [3] it was above 100 µM; in assay [4], 76.1 µM; in [5], above 100 µM; in assay [6] it was above 100 µM; in assay [7], 87.1 µM. Further, the TGI in assay [9], in [10] and in assay [11] was above 100 µM throughout.
On to `CCC(=O)OCOc1ccc(/C=C2\CCC(CN(C)C)C2=O)cc1` (configuration not stated), for which the TGI was 5.54 µM in [1]; 11.1 µM in [2]; 13.6 µM in [3]; 30.6 µM in assay [4]; 15.8 µM in assay [5]; 27.6 µM in [12]. For the same compound, the TGI in assay [6] is above 61.2 µM; in assay [7] it was 4.66 µM; in assay [8], 29.1 µM; in [9], 31.5 µM; in [10], 10.6 µM; in assay [11], 18.5 µM.
Consider `COc1ccc(C(C2=C(O)CC(C)OC2=O)C2=C(O)CC(C)OC2=O)cc1` (configuration not stated), for which the TGI in [1], in [2], in [3], in [5], in assay [6] and in [7] was above 100 µM throughout. For the same compound, the TGI in [9], in assay [10] and in assay [11] was above 100 µM in each case.
As for `COc1ccc(N=NC2=C(O)CCC2=O)cc1`, the TGI is above 100 µM in assay [1]; above 100 µM in [2]; 30.6 µM in assay [3]; above 100 µM in assay [4]; above 100 µM in assay [5]; above 100 µM in assay [6]. Further, the TGI in assay [7], in assay [8], in [9], in [10] and in assay [11] was above 100 µM throughout.
On to `CCC(O)CCCCCCCCCCCCCCC(=O)O` (configuration not stated), for which the TGI in [1], in assay [2], in assay [3], in [4], in [5] and in assay [6] was above 100 µM in each case. Moreover, the TGI in assay [7], in assay [8], in assay [9] and in assay [10] was above 100 µM throughout.
For `COc1cc(/C=C2\[C@@H]3NC(Cc4c(OC)c(C)c(OC)c(OC)c43)C(=O)N2Cc2ccccc2)c(OC)c(C)c1OC`, the TGI in [1] was above 100 µM; in assay [2] it was 77.3 µM; in assay [3] it was above 100 µM; in assay [4] it was above 100 µM; in assay [5], above 100 µM; in assay [6], above 100 µM. Moreover, the TGI in assay [7] was above 100 µM; in assay [8], above 100 µM; in [10] it was 91.4 µM; in [11] it was above 100 µM.
With `O=C(NC1CCC[C@H]1OC(=O)c1ccccc1)c1ccccc1` (some centres not stated), the TGI in assay [1], in assay [2], in [3], in assay [4], in assay [5] and in assay [6] was above 100 µM in each case. Besides, the TGI in [7], in [8], in assay [9] and in assay [10] was above 100 µM in each case.
As for `CCCCCCCCCC1CC(=O)OC2=C1C(=O)CCC2` (configuration not stated), the TGI in assay [1], in [2], in assay [3], in assay [5], in [6] and in assay [7] was above 100 µM in each case. Besides, the TGI in assay [8], in [9], in [10] and in assay [11] was above 100 µM in each case.
On to `C=CC1=C(C)C(/C=c2\[nH]/c(=C/c3[nH]c(CC4NC(=O)C(C)/C4=C\C)c(C)c3CCC(=O)O)c(CC(=O)O)c2C)=NC1=O` (configuration not stated), for which the TGI in assay [1], in [2], in [3], in assay [5], in [6] and in assay [7] was above 100 µM in each case. The TGI in assay [8], in assay [9], in assay [10] and in assay [11] was above 100 µM each time.
For `COc1cc2[nH]c3c(c2cc1OC)CCN[C@@]31CC[C@@]2(CC3c4c(cc(OC)c(O)c42)CCN3C)C[C@@H]1OC` (some centres not stated), the TGI in assay [1] is above 100 µM; in assay [2], 40 µM; in [3], 45.3 µM; in assay [4], above 96.9 µM; in assay [5], above 100 µM; in assay [12] it was above 100 µM. In addition, the TGI is 25.2 µM in [6]; 56.5 µM in [7]; above 100 µM in assay [8]; above 100 µM in assay [9]; 33.8 µM in [10]; above 83.4 µM in [11].
